Source: the supplement of paper PMC10307832

Legend:
Assay in all cases: relative viability (nuclei count vs DMSO), 5 days (fraction); higher = more cells survive
TPCA-1 + Foretinib = compound: C1=CC(=CC=C1C2=CC(=C(S2)NC(=O)N)C(=O)N)F [TPCA-1] + COc1cc2c(Oc3ccc(NC(=O)C4(C(=O)Nc5ccc(F)cc5)CC4)cc3F)ccnc2cc1OCCCN1CCOCC1 [Foretinib] (partner 0.25 µM)
Procedure, shortened: (§1)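 For relative viability, nuclei counts in treated wells were divided by those in vehicle wells. Lung cancer cell lines had been pin-tool dosed in 1536-well plates the day after seeding and cultured for 5 days, then fixed and stained in one step (final 0.05% Triton X-100, 1% formaldehyde, 1 ug/ml Hoechst) and imaged at 4×. Doses were one drug alone or a fixed anchor-drug dose plus five library-drug doses (not always all listed) in √10 steps, and values are duplicate-plate medians.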

[1] = compound: C1/C(=C\C2=CC=CS2)/C(=O)/C(=C/C3=CC=CS3)/C1 + CCNC(=O)c1noc(-c2cc(C(C)C)c(O)cc2O)c1-c1ccc(CN2CCOCC2)cc1 [Luminespib] (partner 0.01 µM)
Procedure, shortened: as §1

[2] = compound: C1/C(=C\C2=CC=CS2)/C(=O)/C(=C/C3=CC=CS3)/C1 + Nc1nc2[nH]cc(CCc3ccc(C(=O)N[C@@H](CCC(=O)O)C(=O)O)cc3)c2c(=O)[nH]1 [Pemetrexed] (partner 0.2 µM)
Procedure, shortened: as §1

Lestaurtinib + OSI-027 = compound: C[C@]12O[C@H](C[C@]1(O)CO)n1c3ccccc3c3c4c(c5c6ccccc6n2c5c31)CNC4=O [Lestaurtinib] + COc1cccc2cc(-c3nc([C@H]4CC[C@H](C(=O)O)CC4)n4ncnc(N)c34)[nH]c12 [OSI-027] (partner 0.5 µM)
Procedure, shortened: as §1

Cell Line | relative viability (TPCA-1 + Foretinib; first compound 0.04 µM) | relative viability (TPCA-1 + Foretinib; first compound 0.1265 µM) | relative viability (TPCA-1 + Foretinib; first compound 0.4 µM) | relative viability (TPCA-1 + Foretinib; first compound 1.265 µM) | relative viability (TPCA-1 + Foretinib; first compound 4 µM) | relative viability ([1]; first compound 0.2 µM) | relative viability ([1]; first compound 0.6325 µM) | relative viability ([1]; first compound 2 µM) | relative viability ([1]; first compound 6.325 µM) | relative viability ([1]; first compound 20 µM) | relative viability ([2]; first compound 0.2 µM) | relative viability ([2]; first compound 0.6325 µM) | relative viability ([2]; first compound 2 µM) | relative viability ([2]; first compound 6.325 µM) | relative viability ([2]; first compound 20 µM) | relative viability (Lestaurtinib + OSI-027; first compound 0.005 µM) | relative viability (Lestaurtinib + OSI-027; first compound 0.01581 µM) | relative viability (Lestaurtinib + OSI-027; first compound 0.05 µM) | relative viability (Lestaurtinib + OSI-027; first compound 0.1581 µM) | relative viability (Lestaurtinib + OSI-027; first compound 0.5 µM)
NCI-H2085 | 0.846 | 0.79 | 1.2 | 0.882 | 0.742 | 0.446 | 0.433 | 0.453 | 0.41 | 0.503 | 0.963 | 0.909 | 0.96 | 0.857 | 0.939 | 0.707 | 0.822 | 0.801 | 0.658 | 0.521
NCI-H358 | 0.811 | 0.729 | 0.845 | 0.517 | 0.227 | 0.324 | 0.453 | 0.337 | – | 0.341 | 0.213 | 0.207 | 0.171 | 0.191 | 0.177 | 0.658 | 0.629 | 0.285 | 0.232 | 0.0986
H3255 | 0.825 | 0.876 | 0.821 | 0.541 | 0.514 | 1.21 | 0.855 | 0.954 | 0.871 | 0.907 | 0.573 | 0.594 | 0.61 | 0.528 | 0.602 | 0.63 | 0.515 | 0.56 | 0.36 | 0.276
NCI-H2228 | 0.899 | 0.677 | 0.842 | 0.717 | 0.722 | 0.158 | 0.167 | 0.179 | 0.133 | 0.134 | 0.369 | 0.333 | 0.4 | 0.33 | 0.326 | 0.528 | 0.627 | 0.349 | 0.294 | 0.104
CAL-12T | 1.21 | 0.989 | 1.15 | 1.08 | 0.716 | 0.374 | 0.316 | 0.404 | 0.444 | 0.364 | 1.28 | 1.25 | 1.24 | 1.16 | 1.07 | 0.699 | 0.698 | 0.515 | 0.36 | 0.278
A-427 | 1.01 | 1.05 | 1.05 | 0.921 | 0.695 | 1.01 | 0.905 | 0.939 | 0.876 | 0.977 | 1.02 | 1.04 | 0.89 | 0.943 | 0.941 | 0.473 | 0.402 | 0.257 | 0.233 | 0.146
HARA | 0.874 | 0.907 | 0.887 | 0.893 | 0.681 | 0.785 | 0.923 | 1.09 | 0.853 | 0.791 | 0.249 | 0.254 | 0.228 | 0.222 | 0.241 | 0.629 | 0.469 | 0.324 | 0.278 | 0.104
NCI-H1793 | 0.72 | – | 0.647 | 0.559 | 0.263 | 0.229 | 0.178 | 0.189 | 0.153 | 0.179 | 0.973 | 0.711 | 1.03 | 0.796 | 0.914 | 0.291 | 0.257 | 0.242 | 0.274 | 0.183
NCI-H2009 | 1.24 | 1.21 | 1.22 | 1.28 | 1.18 | 1.05 | 1.05 | 0.941 | 0.741 | 1.03 | 1.05 | 1.01 | 1 | – | 0.977 | 0.578 | 0.449 | 0.365 | 0.441 | 0.24
NCI-H322M | 1.2 | 0.973 | 1.01 | 0.998 | 0.633 | 0.994 | 0.831 | 0.938 | 0.812 | 0.745 | 0.628 | 0.642 | 0.681 | 0.503 | 0.626 | 0.561 | 0.525 | 0.427 | 0.498 | 0.372
LXF-289 | 0.972 | 0.966 | 0.89 | 0.981 | 0.692 | 0.705 | 0.735 | 0.633 | 0.611 | 0.691 | 0.911 | 0.839 | 0.889 | 0.858 | 0.852 | 0.805 | 0.677 | 0.491 | 0.536 | 0.391
HCC-827 | 1.14 | 1.03 | 1.06 | 0.873 | 0.443 | 0.85 | 0.608 | 0.454 | 0.592 | 0.636 | 0.262 | 0.226 | 0.243 | 0.248 | 0.284 | 0.781 | 0.727 | 0.459 | 0.626 | 0.659
EMC-BAC-2 | 1.02 | 0.956 | 1.05 | 1.14 | 0.887 | 1.23 | 1.23 | 1.19 | 1.09 | 1.12 | 0.449 | 0.467 | 0.443 | 0.391 | 0.447 | 0.38 | 0.365 | 0.363 | 0.308 | 0.263
NCI-H520 | 0.768 | 0.816 | 0.753 | 0.676 | 0.742 | 0.231 | 0.218 | 0.212 | 0.209 | 0.242 | 0.644 | 0.623 | 0.727 | – | 0.65 | 0.299 | 0.286 | 0.272 | 0.206 | 0.196
NCI-H1755 | 0.914 | 0.895 | 0.923 | 0.832 | 0.669 | 0.51 | 0.402 | 0.642 | 0.341 | 0.274 | 0.436 | 0.413 | 0.484 | 0.369 | 0.387 | 0.814 | 0.706 | 0.471 | 0.406 | 0.338
NCI-H1993 | 0.798 | 0.644 | 0.75 | 0.663 | 0.676 | 0.727 | 0.765 | 0.726 | 0.763 | 1.78 | 0.669 | 0.593 | 0.539 | 0.551 | 0.472 | 0.59 | 0.555 | 0.524 | 0.534 | 0.423
